Like-named read-outs stand apart in the source and are kept apart here.

Results on nine molecules are retold here after patent USRE49918E1, “Cytotoxic benzodiazepine derivatives” (priority 2011, dated 2024).

One data set relates to HL60/QC cells. The experiment in a line: In vitro potency (WST-8 cell viability assay), HL60/QC. In kind it is cell-based, human. As for the experimental part:
(§1) General Procedure Used: Samples of unconjugated free drug compounds or drug conjugates were added to 96-well flat bottomed tissue culture plates and titrated using serial dilutions to cover the desired molar range. Antigen positive (Ag^+) or Antigen negative (Ag^−) cells were added to the wells in specific cell densities in such a way that there were triplicate samples for each drug concentration for each corresponding cell line. The plates were then incubated at 37° C. in an atmosphere of 5% CO2 for 4-5 days depending on the cell line. COLO 205 (1,000 cells/well), Namalwa (3,000 cells/well), HEL 92.1.7 (3,000 cells/well)—4 days; RH30 (1,000 cells/well), HL60/QC (5,000 cells/well), Ramos (10,000 cells/well), KB (2,000 cells/well), BJAB (2,000 cells/well), NB4 (3,000 cells/well)—5 days, RPMI 8226 (8,000 cells/well)—6 days.
(§2) At the end of the incubation period cytotoxic potencies were then assessed using a WST-8 based cell viability assay and surviving cells were measured by developing with WST-8 (2-7 hours). The absorbance in each well was measured and the surviving fraction of cells at each concentration was plotted to reveal the cytotoxicity and/or antigen specificity (of the conjugates).
(§3) Using the general procedure described above, the cytotoxicity of the unconjugated free drug compounds was measured against seven cell lines: KB, a HeLa cell contaminant, HL60/QC, an acute myeloid leukemia cell line, Namalwa, a Burkitt lymphoma cell line, NB4, an acute promyelocytic leukemia cell line, HEL92.1.7, an erythroleukemia cell line, RPMI8226, a multiple myeloma cell line and BJAB, a B-cell leukemia cell line. […] The potency and specificity of the antibody-drug conjugates were measured against antigen-expressing cells, with and without the additions of an excess amount of blocking unconjugated antibody to show specificity of the killing effect. The MY9-6-drug conjugate was extremely potent towards three different antigen-expressing cells: HL60/ATCC, HL60/QC and NB-4, despite the very low antigen expression in NB4 cells. […] Similarly, the huFOLR1-drug conjugate was effective in killing antigen-expressing KB cells in a specific manner. Results are illustrated in FIGS. 25 and 26.
To compare in vitro potency measurements for the subject conjugates prepared with and without imine reactive reagent, such as sodium bisulfite, huMy9-6-BMPS-1f, huMy9-6-sulfo-SPDB-1f, and huMy9-6-Drug 2 were prepared with and without sodium bisulfite using the in situ sulfonation method (wherein the respective compounds of the invention was first mixed with sodium bisulfite and a bifunctional crosslinker bearing a reactive group, then the reaction mixture, without further purification, was reacted with the huMy9-6 monoclonal antibody as the cell-binding agent). IC50s for the conjugates on HL60-QC cells are shown below.
(In general: Tetrazolium assays rely on reduction of a dye to a coloured formazan, in cell work by metabolically active cells.)

In another data set the test system is KB cells. The experiment in a line: In vitro potency (WST-8 cell viability assay), KB. Format: cell-based. The note with it: Homo sapiens, read-out: IC50 KB. As to the method:
as §1, §2, §3

In data set [1] the test system is BJAB, a B-cell leukemia cell line. The experiment in a line: In vitro potency (WST-8 cell viability assay), BJAB. In kind it is cell-based. As to conditions: Homo sapiens, read-out: IC50 BJAB. As to the method: as §1, §2, §3
For data set [2], the system named is HEL92.1.7, an erythroleukemia cell line. The experiment in a line: In vitro potency (WST-8 cell viability assay), HEL92.1.7. In kind it is cell-based. The note with it: Homo sapiens. As to the method: as §1, §2, §3
Data set [3] relates to RPMI8226, a multiple myeloma cell line. Briefly: In vitro potency (WST-8 cell viability assay), RPMI8226. In kind it is cell-based. The note with it: Homo sapiens. As to the method:
as §1, §2, §3

Data set [4] has as its system NB4, an acute promyelocytic leukemia cell line. Briefly: In vitro potency (WST-8 cell viability assay), NB4. Format: cell-based. As to conditions: read-out: IC50 NB4. As for the experimental part: as §1, §2, §3
Data set [5] concerns Namalwa, a Burkitt lymphoma cell line. Briefly: In vitro potency (WST-8 cell viability assay), Namalwa. The note with it: read-out: IC50 Namalwa. In kind it is cell-based. As for the experimental part:
as §1, §2, §3

For data set [6] the following is noted: Phase I clinical evaluation; cited from earlier work.
Another data set concerns HL60/QC tumors. The experiment in a line: In vivo efficacy in HL60/QC tumor bearing nude mice. The note with it: HL60-QC tumor xenografts; for T/C %: ~20 μg/kg drug dose. As to the method: In this study, the anti-tumor activity of huMY9-6-SPDB-1f was investigated in female nude mice bearing HL60/QC tumors, a human acute myeloid leukemia model. HL60/QC tumor cells, 2×10^6 cells/mouse were subcutaneously inoculated at a volume of 0.1 mL/mouse in the area over the right shoulder of female athymic nude mice, 5 weeks of age. Eight days after tumor cell inoculation mice were randomized into groups (n=6 per group) by tumor volume. Treatment was initiated the day of randomization, and groups included a control group dosed with PBS (200 μL/injection), or a single treatment at various doses (5 to 100 μg/kg) of huMY9-6-SPDB-1f (50 μg/kg 1f dose corresponded to 2.5 mg/kg antibody dose). […] The minimum effective dose was estimated to be 20 μg/kg, which is about 35-fold lower that the maximum tolerated dose.
To compare in vivo efficacy of the subject conjugates prepared with or without an imine reactive group, huMy9-6-Drug 2 were formulated with or without 50 μM sodium bisulfite, and the conjugates were used to treat mice bearing HL60-QC tumor xenografts.

[7] abbreviates: Homo sapiens, HL-60, free drug, read-out: IC50 HL60/QC.
The mark [8] stands for this setting: HEL 92.1.7, free drug, read-out: IC50 HEL92.1.7.
The mark [9] stands for this setting: RPMI-8226, free drug, read-out: IC50 RPMI8226.

`COc1cc2c(cc1OCc1cc(COc3cc4c(cc3OC)C(=O)N3c5ccccc5C[C@H]3CN4)cc(CSCC(C)(C)SSC)c1)NC[C@@H]1Cc3ccccc3N1C2=O` [Compound 27f]: the IC50 with HL60/QC cells (setting [7]) is 1700 pM; with KB cells (free drug), 4.4 nM; in [1] (free drug) it was 1 nM; in data set [2] (setting [8]), 1.8 nM; in data set [3] (setting [9]), above 3 nM; in [4] (free drug), 1.1 nM.
As to `COc1cc2c(cc1OCc1cccc(COc3cc4c(cc3OC)C(=O)N3c5ccccc5C[C@H]3CN4)c1)N=C[C@@H]1Cc3ccccc3N1C2=O` [Compound 29b], the IC50 in the data set with HL60/QC cells (setting [7]) was determined as 6 pM; in [5] (free drug), 0.003 nM; in the data set on KB cells (free drug) it was 0.007 nM; in data set [1] (free drug), 0.003 nM; in data set [2] (setting [8]), 0.007 nM; in data set [3] (setting [9]), 0.005 nM. Further, the IC50 in [4] (free drug) amounted to 0.007 nM.
For `COc1cc2c(cc1OCc1cccc(COc3cc4c(cc3OC)C(=O)N3c5ccccc5C[C@H]3CN4)c1)NC[C@@H]1Cc3ccccc3N1C2=O` [Compound 29c], the IC50 in the data set with HL60/QC cells (Homo sapiens, HL-60, read-out: IC50 HL60/QC) stood at 30 pM; in data set [5], 0.013 nM; in the data set with KB cells, 0.057 nM; in data set [1], 0.015 nM; in data set [2] (HEL 92.1.7, read-out: IC50 HEL92.1.7) it was 0.027 nM; in [3] (RPMI-8226, read-out: IC50 RPMI8226), 0.16 nM. Also, the IC50 in data set [4] turned out to be 0.023 nM.
For `C=C1C[C@H]2C=Nc3cc(OCCCOc4cc5c(cc4OC)C(=O)N4CC(=C)C[C@H]4C=N5)c(OC)cc3C(=O)N2C1` [SJG-136], the maximum tolerated dose in data set [6] is on record as 45 μg/m^2.
Take `COCCOCCOCCN(CC(C)(C)S(C)=S)c1cc(COc2cc3c(cc2OC)C(=O)N2c4ccccc4C[C@H]2C=N3)cc(COc2cc3c(cc2OC)C(=O)N2c4ccccc4C[C@H]2CN3)c1` (stereo partly drawn) [Compound 1d]: the IC50 came out at 32 pM in the data set on HL60/QC cells (setting [7]), 0.069 nM in data set [5] (free drug) and 0.18 nM in the data set on KB cells (free drug).
For `COc1cc2c(cc1OCc1cc(COc3cc4c(cc3OC)C(=O)N3c5ccccc5C[C@H]3C=N4)cc(CSCC(C)(C)SSC)c1)N=C[C@@H]1Cc3ccccc3N1C2=O` [Compound 27d], the IC50 in the data set with HL60/QC cells (setting [7]) was 50 pM; with KB cells (free drug) it was 0.23 nM; in data set [1] (free drug), 0.04 nM; in data set [2] (setting [8]), 0.14 nM; in [3] (setting [9]), 0.07 nM; in data set [4] (free drug), 0.039 nM.
For `COc1cc2c(cc1OCc1cccc(COc3cc4c(cc3OC)C(=O)N3c5ccccc5C[C@H]3C=N4)c1)N=C[C@@H]1Cc3ccccc3N1C2=O` [Compound 29a], the IC50 was 1 pM with HL60/QC cells (setting [7]); 0.002 nM in [5] (free drug); 0.004 nM in the data set with KB cells (free drug); 0.001 nM in [1] (free drug); 0.0031 nM in data set [2] (setting [8]); 0.011 nM in [3] (setting [9]). In addition, the IC50 in data set [4] (free drug) amounted to 0.0023 nM.
With `COc1cc2c(cc1OCc1cc(COc3cc4c(cc3OC)C(=O)N3c5ccccc5C[C@H]3CN4)cc(CSCC(C)(C)SSC)c1)N=C[C@@H]1Cc3ccccc3N1C2=O` [Compound 27e], the IC50 with HL60/QC cells (setting [7]) was determined as 90 pM; in the data set with KB cells (free drug) it was 0.39 nM; in data set [1] (free drug), 0.12 nM; in [2] (setting [8]), 0.2 nM; in data set [3] (setting [9]), 0.24 nM; in data set [4] (free drug) it was 0.13 nM.

B1: huMy9-6-Drug 2 (conjugate, chains of the INN, looked up)
VH: QVQLVESGGGVVQPGRSLRLSCAASGFTFSSFGMHWVRQAPGKGLEWVAYISSGSFTIYYADSVKGRFTISRDNSKNTLYLQMNSLRAEDTAVYYCARMRKGYAMDYWGQGTLVTVSS
VL: DVVMTQSPLSLPVTLGQPASISCRSSQIIIHSDGNTYLEWFQQRPGQSPRRLIYKVSNRFSGVPDRFSGSGSGTDFTLKISRVEAEDVGVYYCFQGSHVPHTFGQGTKVEIK
modifications: Drug 2 payload
Regarding B1, the IC50 in the data set with HL60/QC cells (HL60-QC cells, antigen blocking with 1 μM unconjugated huMy9-6, conjugate prepared with NaHSO3 (+), read-out: IC50 (pM) huMy9-6 blocking) is above 3000 pM; in the data set with HL60/QC cells (HL60-QC cells, antigen blocking with 1 μM unconjugated huMy9-6, conjugate prepared without NaHSO3 (−), read-out: IC50 (pM) huMy9-6 blocking) it was above 3000 pM; in the data set on HL60/QC cells (HL60-QC cells, conjugate prepared with NaHSO3 treatment (+), read-out: IC50) it was 6.8 pM; in the data set on HL60/QC cells (HL60-QC cells, conjugate prepared without NaHSO3 treatment (−), read-out: IC50) it was 16 pM. Also, the entries for the “Minimum effective dose (μg/kg drug)” value with HL60/QC tumors (conjugate formulated with 50 μM sodium bisulfite (+)) and in the data set on HL60/QC tumors (conjugate formulated without 50 μM sodium bisulfite (−)) were 19 μg/kg drug and 18 μg/kg drug, respectively. Further, the T/C % in the data set on HL60/QC tumors (formulated with 50 μM sodium bisulfite (+)) is listed as 16%; in the data set on HL60/QC tumors (formulated without sodium bisulfite (−)) it was 20%.
